The target in assay [1] is T1, Soluble guanylate cyclase (Homo sapiens) (UniProt Q02153+O75343+P33402+Q02108). The assay is described as follows: Effect on cGMP production in porcine iris-ciliary body at 10 uM. The following applies: Sus scrofa, target entry is the homologue from another species. Type of assay: functional.
Assay [2] addresses T1, Soluble guanylate cyclase (Homo sapiens). The assay is described as follows: Effect on cGMP production in porcine iris-ciliary body at 100 uM. The following applies: Sus scrofa, target entry is the homologue from another species. Type of assay: functional.
The test system of assay [3] is Oryctolagus cuniculus. Put plainly: Lowering of intraocular pressure in rabbit eye at 10 mM administered topically. Type of assay: functional, organism-based.
Assay [4] is filed under the species Oryctolagus cuniculus. The assay is described as follows: Lowering of intraocular pressure in rabbit eye intravitreally injected with 10 mM. Type of assay: functional, organism-based.

The source made the active and inactive calls. The calls are words filed in the database; no cut-off is given here.

In the case of `CC(=O)O/N=C(/c1c[nH]cn1)[N+](=O)[O-]`, the Activity was 0.45 pmol/mg in assay [1] and 0.78 pmol/mg in assay [2]. The outcome with Oryctolagus cuniculus [3] was inactive.
With `Cn1cncc1C(=N)NOC(=O)C(C)(C)C`, the Activity in assay [1] is 0.63 pmol/mg; in assay [2] it was 0.24 pmol/mg. Also, in the assay with Oryctolagus cuniculus [3], the outcome was inactive.
`CCCC(=O)O/N=C(/c1c[nH]cn1)[N+](=O)[O-]`: the Activity in assay [1] came to 0.5 pmol/mg; in assay [2], 0.38 pmol/mg. In addition, the outcome with Oryctolagus cuniculus [3] was inactive.
For `CC(C)(C)C(=O)O/N=C(/c1c[nH]cn1)[N+](=O)[O-]`, the values for the Activity in assay [1] and in assay [2] were 0.36 pmol/mg and 0.73 pmol/mg, respectively. For the same molecule, the result in the assay on Oryctolagus cuniculus [3] was inactive.
Regarding `CC(=O)ONC(=N)c1cncn1C`, the outcome in the assay filed under Oryctolagus cuniculus [4] and in the assay on Oryctolagus cuniculus [3] was inactive.
Regarding `CCCC(=O)ONC(=N)c1cncn1C`, the Activity in assay [1] amounted to 0.23 pmol/mg; in assay [2] it was 0.24 pmol/mg. In addition, the result with Oryctolagus cuniculus [3] was inactive.

The record behind these values is ChEMBL document CHEMBL1146947, “Synthesis and ocular effects of imidazole nitrolic acid and amidoxime esters” (Bioorg Med Chem Lett, 2006).
